Reference: patent US4694018A, “Substituted 1,5-diphenyl-2-pyrrolepropionic acids and derivatives” (G. D. Serale & Co., priority 1985, dated 1987)

Columns and labels:
5-lipoxygenase = target: T1, 5-lipoxygenase (Rattus norvegicus, UniProt P12527); experiment: Inhibition of 5-lipoxygenase, in vitro (5-HETE synthesis by RBL-1 homogenate 100,000×g supernatant); assay type: biochemical; conditions: RBL-1 homogenate supernatant, 5-HETE from [1-14C]-arachidonic acid with Ca++; read-out: Rat Basophilic Leukemia Cell- Inhibition IC50
T1 construct: supernatant fraction of Rat Basophilic Leukemia Cell Homogenate (RBL-1) serves as a 5-lipoxygenase enzyme source; endogenous in cells; host or cells: RBL-1 (rat basophilic leukemia cells), 100,000×g supernatant of homogenate
T1 sequence (P12527 1-673): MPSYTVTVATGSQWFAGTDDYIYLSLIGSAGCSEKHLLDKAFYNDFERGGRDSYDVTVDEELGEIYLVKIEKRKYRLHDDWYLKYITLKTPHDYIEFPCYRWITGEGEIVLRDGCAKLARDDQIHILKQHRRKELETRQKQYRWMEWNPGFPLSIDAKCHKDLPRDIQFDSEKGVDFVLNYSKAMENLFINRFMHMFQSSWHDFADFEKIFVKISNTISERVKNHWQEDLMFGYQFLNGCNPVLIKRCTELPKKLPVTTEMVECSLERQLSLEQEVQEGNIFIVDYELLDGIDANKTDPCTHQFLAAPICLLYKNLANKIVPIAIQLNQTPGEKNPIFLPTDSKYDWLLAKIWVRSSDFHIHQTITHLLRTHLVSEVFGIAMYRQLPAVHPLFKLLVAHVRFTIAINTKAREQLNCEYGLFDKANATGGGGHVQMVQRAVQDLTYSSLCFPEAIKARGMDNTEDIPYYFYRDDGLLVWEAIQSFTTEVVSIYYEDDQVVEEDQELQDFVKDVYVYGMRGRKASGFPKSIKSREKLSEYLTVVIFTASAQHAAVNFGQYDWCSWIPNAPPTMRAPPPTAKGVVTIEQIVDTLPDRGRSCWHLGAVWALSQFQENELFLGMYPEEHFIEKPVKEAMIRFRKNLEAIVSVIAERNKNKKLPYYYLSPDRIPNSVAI
Procedure: (1) Inhibition of 5-lipoxygenase, in vitro: anti-inflammatory, anti-allergyactivities.
The 100,000×g supernatant fraction of Rat Basophilic Leukemia Cell Homogenate (RBL-1) serves as a 5-lipoxygenase enzyme source. The enzyme is incubated with [1-^14 C]-arachidonic acid and Ca++ in the presence and absence of test compound. The product of 5-lipoxygenase, 5-hydroxyeicosatetraenoic acid (5-HETE), is separated by thin-layer chromatography and measured by radioactivity. A compound inhibiting 5-HETE synthesis by 30% or more is considered active at that concentration.

[1] = tested on: bronchoconstricting effects; conditions: versus histamine; cited from earlier work
[2] = tested on: SRS synthesis by Rat Basophilic Leukemia Cell (RBL-1) cells; experiment: Inhibition of slow reacting substance (SRS) biosynthesis in RBL-1 cells; assay type: cell-based; conditions: ionophore A23187, guinea pig ileum bioassay
Procedure: (2) Inhibition of slow reacting substance (SRS) biosynthesis in cells.
SRS synthesis by Rat Basophilic Leukemia Cell (RBL-1) cells is induced by incubation of cells with ionophore A23187 alone and in combination with the test compound. The SRS released into the culture media is measured. The percent inhibition of SRS production is estimated by determining the doses of treated and control media needed in the tissue bath to produce equivalent contractions of segments of isolated guinea pig ileum.
Initial screening doses of test compounds are 1×10^-4 M and 1×10^-5 M.

| SMILES | IC50 (5-lipoxygenase) [µM] | potency relative to histamine in causing long lasting bronchoconstricting effects [1] | inhibition at 5 µM [2] [%] |
| --- | --- | --- | --- |
| NC(=O)CCc1ccc(-c2ccc(F)cc2)n1-c1cc(Cl)ccc1O [Example 4, 1-(5-chloro-2-hydroxyphenyl)-5-(4-fluorophenyl)-1H-pyrrole-2-propanamide] | 2.4 | – | – |
| COc1ccc(-c2ccc(CCC(=O)O)n2-c2cc(Cl)ccc2O)cc1 [Example 7, 1-(5-chloro-2-hydroxyphenyl)-5-(4-methoxyphenyl)-1H-pyrrole-2-propanoic acid] | 35 | – | – |
| O=C(O)CCc1ccc(-c2ccc(Cl)cc2)n1-c1cc(Cl)ccc1O [Example 5, 1-(5-chloro-2-hydroxyphenyl)-5-(4-chlorophenyl)-1H-pyrrole-2-propanoic acid] | 10 | – | – |
| CCCCC/C=C\C\C=C/C=C/C=C/[C@@H](SC[C@H](NC(=O)CC[C@H](N)C(=O)O)C(=O)NCC(=O)O)[C@@H](O)CCCC(=O)O [LTC4] | – | at least 100 times | – |
| O=C(O)CCc1ccc(-c2ccc(F)cc2)n1-c1cc(Cl)ccc1O [Example 1, 1-(5-chloro-2-hydroxyphenyl)-5-(4-fluorophenyl)-1H-pyrrole-2-propanoic acid] | 0.83 | – | 82 |
